Source: EP4810046A1, “USE OF PENTACYCLIC TRITERPENE COMPOUND TARGETING HYDROXYSTEROID 17-B DEHYDROGENASE 4” (Jiangsu Bcy Pharm. Co., Ltd, priority 2023, dated 2025)

Experiments:
Solubility description = format: physicochemical; conditions: methanol/DMSO; water
MFE-2 [1] = molecular target: T1, MFE-2 (Mus musculus, UniProt P51660); test: MFE-2 protein expression in BV2 cells with and without LPS stimulation (Western blot); format: cell-based
T1 construct: endogenous in cells; host or cells: BV2 mouse microglial cell line
T1 sequence (P51660 1-735): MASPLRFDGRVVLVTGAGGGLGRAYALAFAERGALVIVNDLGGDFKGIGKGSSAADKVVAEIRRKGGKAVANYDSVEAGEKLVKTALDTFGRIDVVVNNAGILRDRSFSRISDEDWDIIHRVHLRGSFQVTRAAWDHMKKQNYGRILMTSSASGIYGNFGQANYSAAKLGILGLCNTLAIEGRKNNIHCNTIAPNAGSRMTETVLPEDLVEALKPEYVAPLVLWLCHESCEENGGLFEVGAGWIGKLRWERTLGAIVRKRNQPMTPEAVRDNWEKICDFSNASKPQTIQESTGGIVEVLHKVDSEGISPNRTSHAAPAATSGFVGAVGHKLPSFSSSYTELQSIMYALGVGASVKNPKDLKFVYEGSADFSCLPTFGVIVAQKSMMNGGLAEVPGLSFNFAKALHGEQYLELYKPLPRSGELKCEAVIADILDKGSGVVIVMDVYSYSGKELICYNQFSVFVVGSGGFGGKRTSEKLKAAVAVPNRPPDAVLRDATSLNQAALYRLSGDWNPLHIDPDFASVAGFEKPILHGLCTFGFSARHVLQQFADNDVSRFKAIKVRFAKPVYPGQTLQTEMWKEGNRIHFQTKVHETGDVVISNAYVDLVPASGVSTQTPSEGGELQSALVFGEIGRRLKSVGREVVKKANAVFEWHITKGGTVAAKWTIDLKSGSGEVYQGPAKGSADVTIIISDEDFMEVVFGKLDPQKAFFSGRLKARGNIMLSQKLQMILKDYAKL
Method: Cell treatment: For cell treatment, CKBA was dissolved in DMSO to prepare a stock solution at a concentration of 5mM (1000×), stored at -20°C. For use, the stock solution was added to the cell culture medium at a dilution of 1:1000 and mixed well. The final working concentration was 5µM. Cells were treated for 24-48h and then collected for subsequent experiments.
(§1) The Western blot procedure comprised: fresh cells or tissue samples were immersed in lysis buffer and placed on ice for 10-15 minutes. After observing that the cells/tissues were fully lysed into a homogeneous turbid liquid, the samples were placed on ice for an additional 10 minutes. Centrifugation was performed at 12000 rpm for 10 minutes, and the supernatant was collected. Total protein concentration was determined using the BCA method. Subsequently, steps including loading, electrophoresis, membrane transfer, blocking, and incubation with primary and secondary antibodies were carried out. After developing with ECL chemiluminescent substrate, ImageJ was used to analyze protein content.
Further exploration was conducted to investigate the mode of action of CKBA on the MFE-2 protein.

AD mice = test: Behavioral tests (Morris water maze, open field, Y-maze) in AD mice after oral gavage treatment; format: in vivo; conditions: compared with vehicle control group
Method: For evaluation of therapeutic efficacy in animal models, a 15mg/mL CKBA suspension (solvent: 0.5% sodium carboxymethylcellulose) was administered by oral gavage at a volume of 200µL (equivalent to a dose of 100mg/kg). […] Therapeutic efficacy was evaluated after the treatment period.
• (1) 5xFAD transgenic mice: These mice overexpress mutant human APP (695) carrying the Swedish (K670N, M671L), Florida (I716V) and London (V717I) familial Alzheimer's disease (FAD) mutations, as well as human PS1 carrying two FAD mutations (M146L and L286V). Expressions of both transgenes are driven by the mouse neuron-specific regulatory element Thy1 promoter to achieve overexpression in the brain. […] 5XFAD mice produce almost exclusively Aβ-42 and rapidly accumulate it in the brain. • (2) Preparation of MS mouse (EAE) model and evaluation of CKBA intervention efficacy
Evaluation of the therapeutic effect of CKBA on AD: 8-10 month old 5xFAD mice, 5xFAD mice treated with the small molecule drug CKBA and control mice were subjected to behavioral tests including the Morris water maze, open field test and rotarod test to evaluate higher central nervous system functions. During the behavioral tests, the animal movement trajectory tracking system (EthoVision XT 16.0) was used for full-recording and offline analysis.
Morris water maze: Mice underwent a 5-day adaptive training period, wherein abnormal individuals were excluded. On the final day, after removing the platform, a probe trial was performed. Quantitative data were recorded, including the escape latency after entering the water in each quadrant during the learning phase, the number of platform crossings, and the latency to reach the platform area.
Open field test: The spontaneous activity path of mice in a 50cm*50cm*40 cm novel open field within 5 minutes was recorded. The distance traveled and time spent in the center area were analyzed to assess anxiety-related behavior.
AD mice were treated with CKBA by oral gavage (Figure 5A) for in vivo intervention studies, with continuous intervention for 3 months. […]

inflammatory microglia = test: Seahorse energy metabolism (OCR) assay of CKBA-treated, LPS-stimulated BV2 cells; format: cell-based, mouse; conditions: Figure 4B
Method: The specific methods for CKBA treatment and LPS activation of the BV2 cell line were as described above.
The main steps of the Seahorse assay were as follows: Seahorse XF Cell Mitochondrial Stress Analysis: Single cells from brain tissue were obtained using the aforementioned experimental methods. Microglia in brain tissue were collected by flow cytometry sorting. Primary microglia were seeded into Seahorse XF cell culture plates 4-7 days in advance. After the cells were fully adherent, the probe plate was hydrated with double-distilled water and placed in a CO2-free 37°C incubator overnight. The next day, the calibration solution was replaced to further equilibrate and hydrate the probes. On the day of the experiment, the assay solution was prepared, and the corresponding substrates (glucose, pyruvate, glutamine, etc.) from the kit were added. The pH was adjusted to 7.4. […] OCR/ECAR values were recorded at different time points after drug addition. After recording, the cell plate was removed, and the number of microglia per well was counted under an inverted microscope. After normalizing OCR/ECAR to the cell number, intracellular mitochondrial stress levels were quantitatively analyzed.
Seahorse energy metabolism analysis was performed. By measuring the changes in oxygen consumption reagents and dissolved oxygen content in the cell culture medium, the OCR of the cells was calculated.

MFE-2 [2] = molecular target: T1, MFE-2; test: CKBA-biotin pull-down and Western blot for direct binding to MFE-2; conditions: microglial cell line (BV2), CKBA-biotin 5µM, 6 hours
Method: CKBA pull-down assay was performed to detect the direct interaction between CKBA and MFE-2. Specifically, CKBA was labeled with Biotin. CKBA-biotin was added to the culture medium at a final concentration of 5µM for 6 hours. Cells were then washed, lysed, and incubated with Streptavidin magnetic beads under rotation at 4°C for 3 hours. After washing the beads 4 times, loading buffer was added, and the samples were boiled at 96°C for 5 minutes. Western blot (WB) was used to detect MFE-2 protein levels to assess the direct interaction between the small molecule compound and MFE-2.
as §1

LPS-activated BV2 cells = test: CCK-8 assay of CKBA-treated LPS-activated BV2 cells; format: cell-based, mouse; conditions: 0.1-20 µM CKBA, 24 hours
Method: The mouse microglial cell line BV2 was seeded into 96-well flat-bottom plates and cultured overnight to allow full cell adherence. BV2 cells were activated by stimulation with LPS. LPS (Sigma) stock solution (5 mg/mL) was added to the BV2 cell culture supernatant and mixed well. After 12 hours of activation, cell morphology was observed. […]
Subsequently, a CCK8 assay (Dojindo, Japan) was performed to measure cell viability. The cell culture medium was removed from the 96-well plate, and 100 µL of diluted CCK8 reaction solution was added to each well. The plate was protected from light. Incubation conditions: 37°C incubator for about 1-2 hours. After 1 hour of incubation, the plate was removed, and the colorimetric (orange) signal was detected using a multifunctional microplate reader (Tecan Infinite 200 pro, Austria). Depending on the signal intensity, the plate could be further incubated for 1.5/2 hours, and the signal was measured at multiple time points. The colorimetric intensity values were recorded, and subsequent statistical analysis and graphing were performed using SPSS.
In vitro cell experiments were performed to analyze the effect of CKBA on the inflammatory activation of microglia.

[3] = mouse, po, 100 mg/kg
Method: Based on the above optimized method, the absolute content of CKBA in brain tissue was further detected. For absolute content detection of CKBA in brain tissue, normal mice were administered CKBA by oral gavage. One hour after administration, the mice were perfused, and fresh brain tissue and serum were collected for mass spectrometry analysis.

**Q.** For `C[C@H]1[C@H](C)CC[C@]2(C)CC[C@]3(C)C(=CC(=O)[C@@H]4[C@@]5(C)CC[C@@H](OC(=O)C6CCCCC6)[C@](C)(C(=O)O)[C@@H]5CC[C@]43C)[C@H]12` [CKBA, 3-o-α-cyclohexanoyl-11-keto-β-boswellic acid], which solubility (Solubility description) is on record?
**A.** lipophilic, soluble in methanol/DMSO, insoluble in water

**Q.** What about the “expression and content of MFE-2 after LPS stimulation” value (MFE-2 [1]; LPS-stimulated BV2 cells) of the same compound?
**A.** effectively maintained the expression and content of MFE-2

**Q.** And the “baseline expression level of MFE-2” value (MFE-2 [1]; normal BV2 cells, no LPS)?
**A.** did not affect the baseline expression level of MFE-2

**Q.** What about the platform crossover number (AD mice) of the same compound?
**A.** significant increase

**Q.** And the “time spent in the opposite quadrant” value (AD mice)?
**A.** significant decrease

**Q.** And the “time spent in the specific effective area (center area) as a percentage of total movement time” value (AD mice)?
**A.** significant increase

**Q.** And the “activity of inflammatory microglia (OCR)” value (inflammatory microglia)?
**A.** significantly inhibited the activity of inflammatory microglia

**Q.** What about the “binding to MFE-2 protein (pull-down)” value (MFE-2 [2]) of the same compound?
**A.** could bind to the MFE-2 protein

**Q.** And the “expansion of inflammatory microglia” value (LPS-activated BV2 cells)?
**A.** significantly inhibited the expansion of inflammatory microglia

**Q.** And the peroxisome stability (LPS-activated BV2 cells)?
**A.** maintained peroxisome stability

**Q.** And the blood-brain barrier permeability [3]?
**A.** could effectively cross the blood-brain barrier
